Measured values reported in US20210338615A1, “Inhibition of Acetyl-CoA Metabolism for Treatment and Prevention of Immune System Diseases and Disorders” (Memorial Sloan Kettering Cancer Center, priority 2016, published 2021).

Assays:
[1] = tested on: CD4CreLdhafl/fl (KO) CD4+ T cells differentiated under Th1 conditions; conditions: 20 mM sodium acetate for 24 h
Procedure: In panels A-D, naïve CD4^+ T cells isolated from wild-type (WT) mice were differentiated under Th1 conditions for 2 days. DMSO or the ATP citrate lyase inhibitor (ACLi) BMS-303141 was added to the culture for another 24 h. Subsequently, cells were re-stimulated with phorbol myristate acetate (PMA) and ionomycin for 4 h. IFN-γ expression was determined by intracellular staining. […] Cell viability was determined by LIVE/DEAD staining. […] Data represent mean±SD, n=3. Two-tailed unpaired t-test, *P≤0.05; **P≤0.01; ns, not significant. […] Acetyl-CoA levels were measured by an acetyl-CoA assay kit. Data represent mean±SD, n=3. Two-tailed unpaired t-test, **P≤0.01. […] The expression of T-bet was determined by flow cytometry. Panels G and H show naïve CD4^+ T cells isolated from WT or KO mice, differentiated under Th1 conditions for 3 days. […] The expression of IFN-γ (panel G) and T-bet (panel H) were determined by flow cytometry. […]
For measurement of cytosolic acetyl-CoA, naïve CD4^+ T cells were differentiated under Th1 conditions for 2 days and then cultured in fresh T cell medium for another 24 h. […] Freshly isolated naïve WT and KO CD4^+ T cells were rested in T cell medium with 10 ng/mL IL-7 for 4 h at 37° C. in the incubator, and the level of acetyl-CoA was measured.

[2] = tested on: CD4+ T cells differentiated under Th1 conditions; assay: IFN-γ expression in CD4+ T cells differentiated under Th1 conditions (intracellular staining, flow cytometry); type: cell-based, mouse; conditions: for IFN-γ expression in KO T cells: LDHA-deficient (KO) Th1 cells, 20 mM sodium acetate or 30 nM TSA for another 24 h, PMA and ionomycin 4 h; for IFN-γ expression: WT naïve CD4+ T cells under Th1 conditions, inhibitor added for another 24 h, re-stimulated with PMA and ionomycin 4 h
Procedure: Panels D and E show naïve WT or KO CD4^+ T cells differentiated under Th1 conditions for 3 days, and either left untreated or supplemented with 20 mM sodium acetate for another 24 h.
(§1) IFN-γ expression was determined by intracellular staining. […] Cell viability was determined by LIVE/DEAD staining. […] Data represent mean±SD, n=3. […] Data represent mean±SD, n=3. Two-tailed unpaired t-test, **P≤0.01. […] Data represent mean±SD, n=4.
Naïve CD4^+ T cells isolated from wild-type mice were differentiated under Th1 conditions for 3 days. DMSO or indicated concentration of Fx11 was added to the cell culture for another 24 h, with or without 20 mM sodium acetate. […] IFN-γ expression was determined by intracellular staining. Representative plots (panel A) and quantification (panel B) are shown.
(§2) Cells from thymi, spleens, and lymph nodes were depleted of erythrocytes by hypotonic lysis. Cells were incubated with specific antibodies for 15 min on ice in the presence of anti-FcγR to block FcγR binding. Dead cells were excluded by DAPI (Invitrogen) staining. To determine cytokine expression, cells were stimulated with 50 ng/mL phorbol 12-myristate 13-acetate (Sigma) and 1 μM ionomycin (Sigma) in the presence of GolgiStop (BD Biosciences) for 4 h. After stimulation, cells were stained with cell-surface marker antibodies and LIVE/DEAD Fixable dye (Invitrogen) to exclude dead cells, fixed, and permeabilized with a transcription factor staining kit (eBioscience), followed by staining with cytokine antibodies. All samples were acquired with an LSR II flow cytometer (Becton, Dickinson) and analyzed with FlowJo software (TreeStar).
CD62L^+CD44^−CD25^−CD4^+ T cells were isolated from spleen and peripheral lymph nodes of wild-type (WT) or CD4^CreLdha^fl/fl (KO) mice with naïve CD4^+ T cells isolation kits (Miltenyi or Stem Cell). Purity was checked by flow cytometry, and was over 98%. For in vitro T cell activation, 0.2-0.5×10^6 naïve CD4^+ T cells were cultured on a 24-well plate pre-coated with 5 μg/mL anti-CD3 in T cell medium [RPMI/1640, 10% fetal bovine serum, 2 mM glutamine, 1 mM sodium pyruvate, 1× non-essential amino acid (Invitrogen), 10 mM HEPES, 55 μM 2-mercaptoethanol, 100 U/ml penicillin, […]] supplemented with 2 μg/mL anti-CD28 and 100 U/ml IL-2. For T helper 1 (Th1) cell differentiation, T cells were cultured with the addition of 10 μg/mL anti-IL-4 and 10 ng/mL IL-12. For T helper 17 (Th17) cell differentiation, T cells were cultured with the addition of 10 μg/mL anti-IL-4, 10 μg/mL anti-IFN-γ, 10 μg/mL anti-IL-2, 2 ng/ml TGF-β, 10 ng/ml IL-6, 10 ng/ml IL-23, and 10 ng/mL […]. For cell proliferation experiments, naïve CD4^+ T cells were labeled with CFSE (Invitrogen), and activated on a 24-well plate, pre-coated with 5 μg/mL anti-CD3, in T cell culture medium supplemented with 2 μg/mL anti-CD28 and 100 U/mL IL-2. CFSE dilution was assessed by flow cytometry on days 1, 2, and 3 post-activation. For sodium acetate and TSA treatment experiment, cells were differentiated under Th1 conditions for 3 days, and cultured in T cell medium supplemented with 100 U/mL IL-2, 10 μg/mL anti-IL-4, 10 ng/mL IL-12, and the indicated concentrations of sodium acetate (Sigma), TSA (Promega), or […] for 24 h. For ATP citrate lyase (ACL) inhibitor experiments, naïve CD4^+ T cells isolated from WT mice were cultured under Th1 conditions for 2 days or under Th17 conditions for 3 days. […]

H3K9Ac at the Ifng locus = assay: H3K9Ac at the Ifng promoter and CNS22 enhancer regions by ChIP-qPCR; type: cell-based, mouse; conditions: KO Th1 cells, 20 mM sodium acetate or 30 nM TSA for 24 h; normalized to Cd3e promoter
Procedure: Enrichment was normalized to H3K9Ac at the Cd3e promoter region. […] Cells were subsequently re-stimulated with phorbol myristate acetate (PMA) and ionomycin for 4 h.
In panels A-D, naïve CD4^+ T cells isolated from wild-type (WT) mice were differentiated under Th1 conditions for 2 days. […] Subsequently, cells were re-stimulated with phorbol myristate acetate (PMA) and ionomycin for 4 h. IFN-γ expression was determined by intracellular staining. […] Cell viability was determined by LIVE/DEAD staining. […] Data represent mean±SD, n=3. Two-tailed unpaired t-test, *P≤0.05; **P≤0.01; ns, not significant. […] Acetyl-CoA levels were measured by an acetyl-CoA assay kit. Data represent mean±SD, n=3. Two-tailed unpaired t-test, **P≤0.01. […] The expression of T-bet was determined by flow cytometry. Panels G and H show naïve CD4^+ T cells isolated from WT or KO mice, differentiated under Th1 conditions for 3 days. […] The expression of IFN-γ (panel G) and T-bet (panel H) were determined by flow cytometry. […]
Chromatin immunoprecipitations were performed with SimpleChIP Enzymatic Chromatin IP Kit (Cell Signaling) according to manufacturer's instructions. […] The relative abundance of precipitated DNA fragments was analyzed by qPCR using Power SYBR Green PCR Master Mix (Qiagen) and the enrichments were normalized to Cd3e promoter.

[3] = tested on: CD4+ T cells differentiated under Th1 conditions; assay: T-bet expression in Th1 cells by flow cytometry; type: cell-based, mouse; conditions: WT or KO Th1 cells, 20 mM sodium acetate or 30 nM TSA for another 24 h
Procedure: as §1, §2
CD62L^+CD44^−CD25^−CD4^+ T cells were isolated from spleen and peripheral lymph nodes of wild-type (WT) or CD4^CreLdha^fl/fl (KO) mice with naïve CD4^+ T cells isolation kits (Miltenyi or Stem Cell). […] CFSE dilution was assessed by flow cytometry on days 1, 2, and 3 post-activation. […]

[4] = tested on: experimental autoimmune encephalomyelitis (EAE); assay: Experimental autoimmune encephalomyelitis (EAE), mouse model of multiple sclerosis; type: in vivo; conditions: WT mice, MOG peptide with CFA; 35 mg/kg/day intraperitoneally daily from day 7
Procedure: In panels A-C, naïve WT or LDHA-deficient (KO) CD4^+ T cells were differentiated under Th17 conditions for 3 days. Cells were re-stimulated with PMA/ionomycin for 4 h. […] Data represent mean±SD, n=2. Two-tailed unpaired t-test, **P≤0.01. […] In panels D-F, WT or KO mice were subjected to EAE induction by immunization with MOG peptide with CFA. Clinical scoring in panel D: 0, no overt signs of disease; 1, limp tail; 2, partial hind-limb paralysis; 3, total hind-limb paralysis; 4, hind-limb paralysis and 75% body paralysis; 5, complete body paralysis, or moribund state, or death by EAE, or sacrifice for humane reasons. […] IL-17a and IFN-γ protein expression were examined by flow cytometry. Panel F is quantification of panel E; data represent mean±SD, n=4. Two-tailed unpaired t-test, ***P≤0.001. […] Naïve WT or KO CD4^+ T cells were differentiated under Th17 conditions for 3 days, and BMS 303141 was included in the culture for another 24 hours. Cells were re-stimulated with PMA/ionomycin for 4 h. IL-17a protein expression was examined by flow cytometry. […] WT mice were subjected to EAE induction by immunization with MOG peptide with CFA. BMS 303141 (35 mg/kg/day) was intraperitoneally injected daily, starting from day 7. Clinical scoring was the same as in panel D.

[5] = tested on: CD4+ T cells differentiated under Th17 conditions; assay: IL-17a expression in CD4+ T cells differentiated under Th17 conditions (flow cytometry); type: cell-based, mouse
Procedure: Naïve WT or LDHA-deficient (KO) CD4^+ T cells were differentiated under Th17 conditions for 4 days. Increasing doses of GNE-140 were also included in the WT T cell culture. Cell viability was determined by a live/dead cell dye, and the percentage of live cell population is shown. In addition, cells were re-stimulated with PMA/ionomycin for 4 h. IL-17a and Foxp3 protein expression was examined by flow cytometry, and used as readouts for Th17 and Treg cell differentiation, respectively.
In panels A-C, naïve WT or LDHA-deficient (KO) CD4^+ T cells were differentiated under Th17 conditions for 3 days. Cells were re-stimulated with PMA/ionomycin for 4 h. […] Data represent mean±SD, n=2. Two-tailed unpaired t-test, **P≤0.01. […] In panels D-F, WT or KO mice were subjected to EAE induction by immunization with MOG peptide with CFA. […] Panel F is quantification of panel E; data represent mean±SD, n=4. […]
Naïve CD4 T cells (2.5×10^4) were isolated from spleen and peripheral lymph nodes of Ldha^fl/fl (WT) and CD4^CreLdha^fl/fl (KO) mice. […] Cytokines and transcription factors were analyzed by flow cytometry.
Cells from thymi, spleens, and lymph nodes were depleted of erythrocytes by hypotonic lysis. […] All samples were acquired with an LSR II flow cytometer (Becton, Dickinson) and analyzed with FlowJo software (TreeStar). […]

SMILES	IFN-γ expression in KO T cells [2]	H3K9Ac in the Ifng locus (H3K9Ac at the Ifng locus)	T-bet expression [3]	IFN-γ expression [2]	other results
CC(=O)[O-].[Na+] [Acetate, sodium acetate]	corrected IFN-γ expression in KO T cells	normalization of H3K9Ac in Ifng promoter and enhancer regions	without affecting T-bet expression		acetyl-CoA production [1]: augmented acetyl-CoA production
COc1ccc(-c2ccccc2)cc1NS(=O)(=O)c1cc(Cl)cc(Cl)c1O [BMS 303141, 3,5-dichloro-2-hydroxy-N-(4-methoxy[1,1′-biphenyl]-3-yl)-benzenesulfonamide]				suppresses IFN-γ expression	protection from EAE (clinical scoring) [4]: completely protected mice from EAE; IL-17a production ([5]; Th17 conditions for 3 days, BMS 303141 in the culture for another 24 hours, PMA/ionomycin 4 h): repressed IL-17a production
CCCc1c(O)c(O)c(C(=O)O)c2cc(Cc3ccccc3)c(C)cc12 [FX11]				dose-dependently inhibited IFN-γ expression	inhibitory effect on IFN-γ expression when supplementing cells with acetate ([2]; WT Th1 cells, FX11 for 24 h with 20 mM sodium acetate): fully nullified
O=C1N[C@](c2ccc(N3CCOCC3)cc2)(c2ccsc2)CC(O)=C1Sc1ccccc1Cl [GNE-140, (2R)-5-(2-chlorophenyl)sulfanyl-4-hydroxy-2-(4-morpholin-4-ylphenyl)-2-thiophen-3-yl-1,3-dihydropyridin-6-one]					IL-17A expression ([5]; WT T cells under Th17 conditions with APCs, 0.3, 10 or 30 μM GNE-140, harvested day 4, PMA/ionomycin 4 h): inhibited IL-17A expression in WT T cells in a dose-dependent manner
CC(/C=C/C(=O)NO)=C\[C@@H](C)C(=O)c1ccc(N(C)C)cc1 [TSA]	rectified IFN-γ expression in KO T cells	increased H3K9Ac in the Ifng locus	without affecting T-bet expression		
